Laboratory results from patent EP4725941A1, “ARYLAMIDE DERIVATIVE HAVING ANTITUMOR ACTIVITY” (priority 2020, dated 2021).
pIC50: −log10 of the molar value. Like-named read-outs stand apart in the source and are kept apart here.

Key:
BRAF = molecular target: T1, BRAF (Homo sapiens, UniProt P15056); experiment: BRAF-inhibiting activity, time-resolved fluorescence-fluorescence resonance energy transfer assay; assay type: biochemical
T1 construct: purchased Eurofins Genomics KK; (BRAF); Thermo Fisher Scientific Inc. (MEK1)
T1 sequence (P15056 417-766 limits assumed): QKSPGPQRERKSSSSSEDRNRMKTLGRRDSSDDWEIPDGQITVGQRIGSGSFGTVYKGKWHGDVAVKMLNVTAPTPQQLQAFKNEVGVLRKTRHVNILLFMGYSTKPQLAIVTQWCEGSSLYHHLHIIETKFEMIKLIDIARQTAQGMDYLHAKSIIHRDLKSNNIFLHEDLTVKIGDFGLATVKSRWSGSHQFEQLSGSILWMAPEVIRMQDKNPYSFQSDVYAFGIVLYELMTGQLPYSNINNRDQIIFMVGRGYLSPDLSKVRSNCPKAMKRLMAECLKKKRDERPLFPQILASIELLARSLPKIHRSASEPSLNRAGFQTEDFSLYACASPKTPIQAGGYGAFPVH
Method: The BRAF-inhibiting activity of the compounds listed in Table 3 below was evaluated by the time-resolved fluorescence-fluorescence resonance energy transfer assay as described below.

Calu-6 = experiment: Cell proliferation-inhibiting activity (ATP in viable cells, CellTiter-Glo), Calu-6; assay type: cell-based, human; conditions: Calu-6, 96 h, read-out: Calu-6 IC50
A549 = experiment: Cell proliferation-inhibiting activity (ATP in viable cells, CellTiter-Glo), A549; assay type: cell-based, human; conditions: A549, 96 h, read-out: A549 IC50
[1] = Human liver microsome stability; assay type: in vitro ADME; conditions: human liver microsomes, pH 7.4
NCI-H2122 = experiment: Cell proliferation-inhibiting activity (ATP in viable cells, CellTiter-Glo), NCI-H2122; assay type: cell-based, human; conditions: NCI-H2122, 96 h, read-out: NCI-H2122 IC50
MEK1 = molecular target: T2, MEK1 (Homo sapiens, UniProt Q02750); experiment: MEK1-inhibiting activity, fluorescent polarization method (CRAF/MEK1/ERK2 cascade, IMAP); assay type: biochemical; conditions: Table 3; read-out: MEK1 IC50
T2 construct: purchased Thermo Fisher Scientific Inc. (MEK1, CRAF); Carna Biosciences, Inc. (ERK2)
T2 sequence (Q02750 whole entry): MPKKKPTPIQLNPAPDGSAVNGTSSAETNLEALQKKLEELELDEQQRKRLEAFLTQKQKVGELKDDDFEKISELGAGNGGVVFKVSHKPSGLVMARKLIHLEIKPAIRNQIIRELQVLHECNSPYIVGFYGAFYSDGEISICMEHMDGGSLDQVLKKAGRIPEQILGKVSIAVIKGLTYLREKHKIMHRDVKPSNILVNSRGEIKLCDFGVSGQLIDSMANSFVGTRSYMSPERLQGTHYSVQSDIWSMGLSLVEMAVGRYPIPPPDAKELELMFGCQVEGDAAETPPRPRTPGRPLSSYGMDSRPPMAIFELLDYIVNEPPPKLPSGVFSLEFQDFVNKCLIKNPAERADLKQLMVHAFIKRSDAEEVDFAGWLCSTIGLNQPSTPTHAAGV
Method: The MEK1-inhibiting activity of the compounds listed in Table 3 below were evaluated by the fluorescent polarization method as described below.

[2] = human lung cancer cells, 4 days

Row | SMILES | pIC50 (BRAF; read-out: BRAF IC50; Table 3) | pIC50 (Calu-6; [2]) | pIC50 (A549; [2]) | microsomal CLint at 0.99 µM [1] | pIC50 (NCI-H2122; [2]) | pIC50 (MEK1) | pIC50 (BRAF; Table 3; read-out: BRAF IC50) | pIC50 (Calu-6; Homo sapiens) | pIC50 (A549; Homo sapiens) | pIC50 (NCI-H2122; Homo sapiens)
1 | CCS(=O)(=O)Nc1cccc(Cc2cc(C(=O)NOC(C)(C)C)c(Nc3ccc(I)cc3F)c(F)c2F)c1F [Compound E-2, 5-[[3-(Ethylsulfonylamino)-2-fluorophenyl]methyl]-3,4-difluoro-2-(2-fluoro-4-iodoanilino)-N-[(2-methylpropan-2-yl)oxy]benzamide] | 7.66 | 7.72 | 8.22 | 42 µL/min/mg | 8.70 | 7.07 | – | – | – | –
2 | COCC1(S(=O)(=O)Nc2cccc(Cc3cc(C(=O)NOC(C)(C)C)c(Nc4ccc(I)cc4F)c(F)c3F)c2F)CC1 [Compound E-4] | 7.96 | 7.59 | 8.22 | 168 µL/min/mg | 8.30 | 6.88 | – | – | – | –
3 | CONC(=O)c1cc(Cc2cccc(NS(=O)(=O)C3(C)CC3)c2F)c(F)c(F)c1Nc1ccc(I)cc1F [Compound E-5, 3,4-Difluoro-2-(2-fluoro-4-iodoanilino)-5-[[2-fluoro-3-[(1-methylcyclopropyl)sulfonylamino]phenyl]methyl]-N-methoxybenzamide] | 8.10 | 7.77 | 8.30 | 78 µL/min/mg | 8.52 | 7.72 | – | – | – | –
4 | CC(C)(C)ONC(=O)c1cc(Cc2cccc(NS(=O)(=O)C3(C)CC3)c2F)c(F)c(F)c1Nc1ccc(I)cc1F [Compound E-6, 3,4-Difluoro-2-(2-fluoro-4-iodoanilino)-5-[[2-fluoro-3-[(1-methylcyclopropyl)sulfonylamino]phenyl]methyl]-N-[(2-methylpropan-2-yl)oxy]be nzamide] | 7.77 | 7.55 | 8.10 | 105 µL/min/mg | 8.22 | 7.47 | – | – | – | –
5 | CNS(=O)(=O)Nc1cccc(Cc2cc(C(N)=O)c(Nc3ccc(I)cc3F)c(F)c2F)c1F [Compound E-7, 3,4-difluoro-2-(2-fluoro-4-iodoanilino)-5-[[2-fluoro-3-(methylsulfamoylamino)phenyl]methyl]benzamide] | 8.22 | 8.10 | 9.00 | 5 µL/min/mg | 9.40 | 6.48 | – | – | – | –
6 | CCS(=O)(=O)Nc1cccc(Cc2cc(C(=O)NOC)c(Nc3ccc(I)cc3Cl)c(F)c2F)c1F [Compound E-9, 2-(2-chloro-4-iodoanilino)-5-[[3-(ethylsulfonylamino)-2-fluorophenyl]methyl]-3,4-difluoro-N-methoxybenzamide] | 7.96 | 7.24 | 8.15 | 13 µL/min/mg | 8.22 | 7.02 | – | – | – | –
7 | CCS(=O)(=O)Nc1cccc(Cc2cc(C(=O)NOC(C)(C)C)c(Nc3ccc(I)cc3Cl)c(F)c2F)c1F [Compound E-10, 2-(2-Chloro-4-iodoanilino)-5-[[3-(ethylsulfonylamino)-2-fluorophenyl]methyl]-3.4-difluoro-N-[(2-methylpropan-2-yl)oxy]benzamide] | 7.64 | 7.57 | 8.40 | 51 µL/min/mg | 8.52 | 7.08 | – | – | – | –
8 | CCS(=O)(=O)Nc1cccc(Cc2cc(C(N)=O)c(Nc3ccc(I)cc3Cl)c(F)c2F)c1F [Compound E-11, 2-(2-Chloro-4-iodoanilino)-5-[[3-(ethylsulfonylamino)-2-fluorophenyl]methyl]-3,4-difluorobenzamide] | 8.30 | 7.14 | 8.22 | 11 µL/min/mg | 8.22 | 6.34 | – | – | – | –
9 | CC(C)(C)ONC(=O)c1cc(Cc2cccc(NS(=O)(=O)NC3CC3)c2F)c(F)c(F)c1Nc1ccc(I)cc1Cl [Compound E-12, 2-(2-Chloro-4-iodoanilino)-5-[[3-(cyclopropylsulfamoylamino)-2-fluor ophenyl]methyl]-3,4-difluoro-N-[(2-methylpropan-2-yl)oxy]benzamide] | 7.77 | 8.10 | 8.52 | 160 µL/min/mg | 8.70 | 6.59 | – | – | – | –
10 | NC(=O)c1cc(Cc2cccc(NS(=O)(=O)CC3CC3)c2F)c(F)c(F)c1Nc1ccc(I)cc1F [Compound E-14, 5-[[3-(Cyclopropylmethylsulfonylamino)-2-fluorophenyl]methyl]-3,4-di fluoro-2-(2-fluoro-4-iodoanilino)benzamide] | 7.77 | 7.15 | 7.89 | 22 µL/min/mg | 8.15 | 6.46 | – | – | – | –
11 | CC1(S(=O)(=O)Nc2cccc(Cc3cc(C(N)=O)c(Nc4ccc(I)cc4F)c(F)c3F)c2F)CC1 [Compound E-16, 3,4-Difluoro-2-(2-fluoro-4-iodoanilino)-5-[[2-fluoro-3-[(1-methylcyclopropyl)sulfonylamino]phenyl]methyl]benzamide] | 7.92 | 7.06 | 7.48 | < 1 µL/min/mg | 8.15 | 6.45 | – | – | – | –
12 | CC(C)CS(=O)(=O)Nc1cccc(Cc2cc(C(N)=O)c(Nc3ccc(I)cc3F)c(F)c2F)c1F [Compound E-17, 3,4-Difluoro-2-(2-fluoro-4-iodoanilino)-5-[[2-fluoro-3-(2-methylpropylsulfonylamino)phenyl]methyl]benzamide] | 8.22 | 6.96 | 7.51 | 24 µL/min/mg | 8.15 | 6.70 | – | – | – | –
13 | COCC1(S(=O)(=O)Nc2cccc(Cc3cc(C(N)=O)c(Nc4ccc(I)cc4F)c(F)c3F)c2F)CC1 [Compound E-19] | 7.47 | 7.06 | 8.05 | 115 µL/min/mg | 8.05 | 6.48 | – | – | – | –
14 | NC(=O)c1cc(Cc2cccc(NS(=O)(=O)C3CC3)c2F)c(F)c(F)c1Nc1ccc(I)cc1F [Compound E-22, 5-[[3-(Cyclopropylsulfonylamino)-2-fluorophenyl]methyl]-3,4-difluoro-2-(2-fluoro-4-iodoanilino)benzamide] | 8.40 | 7.06 | 8.22 | 18 µL/min/mg | 8.52 | 6.52 | – | – | – | –
15 | NC(=O)c1cc(Cc2cccc(NS(=O)(=O)C3CCOCC3)c2F)c(F)c(F)c1Nc1ccc(I)cc1F [Compound E-23, 3,4-difluoro-2-(2-fluoro-4-iodoanilino)-5-[[2-fluoro-3-(oxan-4-ylsulfonylamino)phenyl]methyl]benzamide] | 8.22 | 7.33 | 7.51 | 98 µL/min/mg | 8.40 | 7.21 | – | – | – | –
16 | CC(C)S(=O)(=O)Nc1cccc(Cc2cc(C(N)=O)c(Nc3ccc(I)cc3F)c(F)c2F)c1F [Compound E-24, 3,4-Difluoro-2-(2-fluoro-4-iodoanilino)-5-[[2-fluoro-3-(propan-2-ylsulfonylamino)phenyl]methyl]benzamide] | 7.70 | 7.20 | 7.59 | 10 µL/min/mg | 8.30 | 6.72 | – | – | – | –
17 | CCS(=O)(=O)Nc1cccc(Cc2cc(C(N)=O)c(Nc3ccc(I)cc3F)c(F)c2F)c1 [Compound F-2, 5-[[3-(Ethylsulfonylamino)phenyl]methyl]-3,4-difluoro-2-(2-fluoro-4-iodoanilino)benzamide] | 8.30 | 7.18 | 8.10 | 15 µL/min/mg | 8.10 | 6.42 | – | – | – | –
18 | CNS(=O)(=O)Nc1nccc(Cc2cc(C(=O)NOC)c(Nc3ccc(C4CC4)cc3F)c(F)c2F)c1F [Compound G-2, 2-(4-Cyclopropyl-2-fluoroanilino)-3,4-difluoro-5-[[3-fluoro-2-(methylsulfamoylamino)pyridin-4-yl]methyl]-N-methoxybenzamide] | 8.52 | 7.89 | 8.70 | 31 µL/min/mg | 9.40 | 8.22 | – | – | – | –
19 | CNS(=O)(=O)Nc1nccc(Cc2cc(C(=O)NOC)c(Nc3ccc(Br)cc3F)c(F)c2F)c1F [Compound G-3, 2-(4-Bromo-2-fluoroanilino)-3,4-difluoro-5-[[3-fluoro-2-(methylsulfamoylamino)pyridin-4-yl]methyl]-N-methoxybenzamide] | 8.30 | 7.33 | 8.15 | 29 µL/min/mg | 8.70 | 7.82 | – | – | – | –
20 | CNS(=O)(=O)Nc1nccc(Cc2cc(C(N)=O)c(Nc3ccc(SC(F)F)cc3F)c(F)c2F)c1F [Compound H-1, 2-[4-(difluoromethylsulfanyl)-2-fluoroanilino]-3,4-difluoro-5-[[3-fluoro-2-(methylsulfamoylamino)pyridin-4-yl]methyl]benzamide] | – | – | – | 39 µL/min/mg | – | 8.15 | 8.70 | 7.68 | 8.05 | 8.30
21 | CNS(=O)(=O)Nc1nccc(Oc2cc(C(N)=O)c(Nc3ccc(I)cc3F)c(F)c2F)c1F [Compound H-4, 3,4-difluoro-2-(2-fluoro-4-iodoanilino)-5-[3-fluoro-2-(methylsulfamoylamino)pyridin-4-yl]oxybenzamide] | 7.92 | 8.22 | 8.05 | 11 µL/min/mg | 9.00 | 8.10 | – | – | – | –
